In patent publication US9868763B2, “Modulators of protease activated receptors” (The University of Queensland, priority 2011, dated 2018):
Entries after “also recorded” stand apart in the source; their conditions may differ.

Assays:
[1] = tested on: HCHF diet-induced obese rats; test: Diet-induced obesity and metabolic syndrome, high carbohydrate high fat (HCHF) fed rats; assay type: in vivo, Wistar rat
Method: Selective PAR2 antagonist 52 was used to evaluate the therapeutic potential of PAR2 antagonism in regulating adiposity, adipose tissue inflammation and metabolic function in rats fed a diet high in carbohydrates and fats (HCHF). Weekly body weight measurements (0-16 weeks) were recorded for Corn Starch CS (●) and High Carbohydrate High Fat (HCHF) (∘)-fed rats (FIG. 13A), as well as for HCHF (∘) and HCHF+PAR2 antagonist 52 (▴)-treated rats (FIG. 13B). In addition, weekly waist circumference measurements were recorded for CS (●), HCHF (∘), HCHF+PAR2 antagonist 52 (▴)-treated rats (FIG. 13 C). FIG. 13 D illustrates […] body composition measurements in CS (▪), HCHF ( ? ), HCHF+PAR2 antagonist 52 (□)-treated rats.
Relative to rats fed a lean diet containing only corn starch (CS), those receiving the HCHF diet for 16 weeks become obese, gaining 54±4% body weight and 206±43% total fat mass, particularly visceral (abdominal) fat from week 0 to 16 (FIGS. 13A-G). FIG. 13F is an image of the abdominal fat pad at 16 weeks in rat given HCHF diet for 16 weeks, but no treatment. […] The increase in PAR2 expression in adipose tissue (FIG. 14A) and its two component fractions, adipocytes and stromal vascular cell (SVC) fractions (FIG. 14B), were all elevated by HCHF feeding, positively correlating with increased adiposity. Local adipose tissue inflammation was also elevated by HCHF feeding (FIG. 15A-F). Findings indicate that a different endogenous signal—saturated fatty acids such as palmitic acid consumed in a HCHF diet—can prime macrophages to increase their expression of PAR2.
The regulation of metabolic parameters by PAR2 antagonist 52 were measured in diet-induced obese rats including systolic blood pressure measurements in CS (●), HCHF (∘) and HCHF+52 (▴)-treated rats (FIG. 16 A), oral glucose tolerance in CS (●), HCHF (∘) and HCHF+PAR2 antagonist 52 (▴)-treated rats (FIG. 16 B), insulin tolerance in CS (●), HCHF (∘), HCHF+PAR2 antagonist 52 (▴)-treated rats (FIG. 16 C), plasma lipid concentrations in CS, HCHF and HCHF+PAR2 antagonist 52-treated rats (FIG. 16 D and plasma liver enzymes in CS, HCHF and HCHF+52-treated rats (FIG. 16 E, *P<0.05 vs CS; **P<0.05 vs HCHF).
FIGS. 17A-C show representative images (20× magnification) of hepatocyte ultrastructure and fat deposition in CS (A), HCHF (B) and HCHF+PAR2 antagonist 52 (C)-treated rats. […] FIG. 17E illustrates metabolic genes in rat liver of different groups. […] Expression of mRNA in was normalized against 18s rRNA and fold change was calculated relative to CS samples. Error bars are means±SEM; *P<0.05, **P<0.01, ***P<0.001.
Regulation of cardiovascular structure and function by PAR2 antagonist 52 in diet-induced obese rats was also measured (FIG. 18), including diastolic stiffness constant measurements in CS, HCHF, HCHF+ compound 52-treated rats (FIG. 18A) and echocardiographic characterization of cardiac structure in CS, HCHF (at 8 weeks before treatment), HCHF and HCHF+ compound 52-treated rats FIG. 18B. FIGS. 18C and D show echocardiographic characterization of cardiac function in CS, HCHF (at 8 weeks before treatment), HCHF and HCHF+ compound 52-treated rats. FIGS. 18E-G illustrate vascular organ bath responses for noradrenaline (E), sodium nitroprusside (F) and acetylcholine (G) in CS (●), HCHF (∘) and HCHF+[…] (▾)-treated rats. Representative images (40× magnification) of interstitial collagen deposition in the left ventricle of CS(H), HCHF (I) and HCHF+PAR2 antagonist 52 (J)-treated rats. FIGS. 18 K and L are graphical representations of the area of collagen deposition in perivascular (K) and interstitial (L) region of the left ventricle. *P<0.05 vs CS; **P<0.05 vs HCHF.

PAR2 = target: T1, PAR2 (Homo sapiens, UniProt P55085); test: PAR2-induced intracellular Ca2+ release in human macrophages; assay type: cell-based; parameters: endogenous in cells
T1 sequence (P55085 26-397): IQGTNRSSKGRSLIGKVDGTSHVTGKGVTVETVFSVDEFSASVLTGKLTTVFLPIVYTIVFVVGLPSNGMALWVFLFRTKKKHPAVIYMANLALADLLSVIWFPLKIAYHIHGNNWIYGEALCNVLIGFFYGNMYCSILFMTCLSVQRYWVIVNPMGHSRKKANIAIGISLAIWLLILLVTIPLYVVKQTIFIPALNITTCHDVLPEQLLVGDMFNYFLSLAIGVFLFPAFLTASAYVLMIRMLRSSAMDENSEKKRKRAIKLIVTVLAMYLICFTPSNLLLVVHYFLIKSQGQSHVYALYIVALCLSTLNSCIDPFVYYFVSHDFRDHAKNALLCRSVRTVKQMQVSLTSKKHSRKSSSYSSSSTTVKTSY
From the text: Peripheral blood mononuclear cells were isolated from buffy coat (Australian Red Cross, Kelvin Grove, QLD) using Ficoll-paque density centrifugation (GE Healthcare Bio-Science, Uppsala, Sweden). CD14^+ monocytes were positively selected using CD14^+ MACS magnetic beads (Miltenyi Biotech, Auburn, Calif., USA). Monocytes were differentiated to HMDM in complete media using M-CSF (PeptroTech Inc, Rocky Hill, N.J., USA). HMDM were supplemented with 50% fresh complete medium containing CSF-1 on Day 5 after seeding and re-plated for use on Day 7.

CC[C@H](C)[C@@H](NC(=O)[C@H](CC1CCCCC1)NC(=O)c1ccno1)C(=O)N1CCC2(C=Cc3ccccc32)CC1 [Compound 52]
body weight gain ([1]; 10 mg/kg/day oral, weeks 8-16): prevention
metabolic indicators after 16 weeks of HCHF feeding ([1]; 10 mg/kg/day oral, weeks 8-16): attenuated or reversed
total fat mass ([1]; 10 mg/kg/day oral, weeks 8-16): prevention
visceral (abdominal) fat deposition ([1]; 10 mg/kg/day oral, weeks 8-16): prevention
increased steatosis ([1]; HCHF rats): prevented
M1-specific proinflammatory genes in adipose tissue ([1]; HCHF-fed rats): drastic decreased
M2-specific genes (Mcr2, Mgl1, Ym1, Arg1) in adipose tissue ([1]; HCHF-fed rats): restored or upregulated
altered Pparg, Ucp2 and Adipoq genes in retroperitoneal adipose tissue ([1]; HCHF-fed rats): attenuated these changes
altered gene expression in skeletal muscle and pancreas ([1]; HCHF-fed rats): attenuated this altered gene expression
development of diet-induced cardiac fibrosis (collagen deposition) ([1]; HCHF-fed rats): potent inhibitory effect
insulin tolerance test ([1]; HCHF-fed rats): improved responsiveness to insulin; also recorded: comparable insulin sensitivity to untreated CS-fed rats
oral glucose tolerance test ([1]; HCHF-fed rats): improved glucose tolerance
pancreatic genes Glut2 and Beta2 ([1]; suppressed in HCHF-fed rats): restored; also recorded: normalized
liver genes Pparg, Srebf1, Ucp2, Ppargc1a, Cpt and Pnpla2 ([1]; treated versus untreated HCHF rats): upregulation
pancreatic genes Iapp, Atf3, Fas and Id-1 upregulated in HCHF rats ([1]; treatment in vivo): attenuated
elevated triglycerides and systolic blood pressure ([1]; treatment weeks 8-16): except for elevated triglycerides and systolic blood pressure
increase in PAR2 expression in whole adipose, adipocyte and stromovascular cells ([1]; treatment weeks 8-16): prevented
metabolic parameters elevated on HCHF diet (glucose and insulin tolerance, plasma lipids, liver enzymes, cardiac structure and function) ([1]; treatment weeks 8-16): attenuated
PAR2 antagonist potency relative to ENMD-1068 (PAR2): 1000 fold
